Tests used:
[1] = biological target: EGFR (human) (UniProt P00533); conditions: hn5
[2] = biological target: EGFR (UniProt P00533)
Chain of EGFR (P00533 whole entry, looked up): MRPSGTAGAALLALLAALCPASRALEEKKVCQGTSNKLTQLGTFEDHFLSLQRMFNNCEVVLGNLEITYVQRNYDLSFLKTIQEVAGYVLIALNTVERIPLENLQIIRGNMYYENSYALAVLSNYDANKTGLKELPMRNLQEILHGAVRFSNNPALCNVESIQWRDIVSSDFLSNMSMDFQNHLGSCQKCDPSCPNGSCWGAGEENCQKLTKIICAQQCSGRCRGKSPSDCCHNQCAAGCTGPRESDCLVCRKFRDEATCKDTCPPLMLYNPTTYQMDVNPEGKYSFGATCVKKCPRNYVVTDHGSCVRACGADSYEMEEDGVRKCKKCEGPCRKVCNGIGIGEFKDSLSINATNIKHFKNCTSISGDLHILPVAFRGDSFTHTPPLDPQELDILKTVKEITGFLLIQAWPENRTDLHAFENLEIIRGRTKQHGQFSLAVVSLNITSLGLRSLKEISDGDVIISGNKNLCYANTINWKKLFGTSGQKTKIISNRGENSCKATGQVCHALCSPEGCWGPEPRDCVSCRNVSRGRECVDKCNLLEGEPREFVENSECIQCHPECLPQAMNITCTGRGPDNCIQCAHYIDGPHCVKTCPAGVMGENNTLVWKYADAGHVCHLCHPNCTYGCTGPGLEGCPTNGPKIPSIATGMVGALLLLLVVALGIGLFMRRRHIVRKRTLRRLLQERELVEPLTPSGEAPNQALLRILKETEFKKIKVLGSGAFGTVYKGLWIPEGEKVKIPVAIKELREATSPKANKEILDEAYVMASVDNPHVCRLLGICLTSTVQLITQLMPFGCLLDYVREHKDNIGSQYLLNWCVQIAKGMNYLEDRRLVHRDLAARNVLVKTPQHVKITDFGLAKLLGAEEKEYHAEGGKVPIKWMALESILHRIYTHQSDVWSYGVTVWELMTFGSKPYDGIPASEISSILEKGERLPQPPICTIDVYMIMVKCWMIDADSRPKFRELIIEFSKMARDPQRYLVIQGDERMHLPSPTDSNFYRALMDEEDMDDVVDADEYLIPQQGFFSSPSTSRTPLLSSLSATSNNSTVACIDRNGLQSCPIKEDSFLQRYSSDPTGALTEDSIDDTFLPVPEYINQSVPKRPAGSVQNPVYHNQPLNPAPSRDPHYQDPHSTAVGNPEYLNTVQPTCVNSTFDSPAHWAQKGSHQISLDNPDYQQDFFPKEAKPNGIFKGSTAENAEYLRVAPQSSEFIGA

Chain of EGFR (human) (P00533 whole entry, looked up): as above

| SMILES | IC50 [1] | IC50 [2] |
| --- | --- | --- |
| NC(=O)[C@@H]1CCCN1Cc1ccc2ncnc(Nc3ccc4c(cnn4Cc4ccccc4)c3)c2c1 |  | < 100 nM |
| CC(C)(C)OC(=O)[C@H]1CCCN1Cc1ccc2ncnc(Nc3ccc4c(cnn4Cc4ccccc4)c3)c2c1 |  | 100 to 1000 nM |
| O=C(O)CNCc1ccc2ncnc(Nc3ccc4c(cnn4Cc4ccccc4)c3)c2c1 |  | < 100 nM |
| CN(CC(N)=O)Cc1ccc2ncnc(Nc3ccc4c(cnn4Cc4ccccc4)c3)c2c1 |  | < 100 nM |
| NC(=O)CNCc1ccc2ncnc(Nc3ccc4c(cnn4Cc4ccccc4)c3)c2c1 |  | < 100 nM |

Continued, values first:

| IC50 [1] | IC50 [2] | SMILES |
| --- | --- | --- |
| < 5 µM |  | CN(CCCOc1ccc2ncnc(Nc3ccc(OCc4ccccc4)cc3)c2c1)CCS(C)(=O)=O |
| < 5 µM |  | CS(=O)(=O)CCNCCCCOc1ccc2ncnc(Nc3ccc(S(=O)(=O)c4ccccc4)cc3)c2c1 |
| < 5 µM |  | CS(=O)(=O)CCNCCCCOc1ccc2ncnc(Nc3ccc(OCc4ccccc4)cc3)c2c1 |
|  | < 100 nM | CS(=O)(=O)CCNCc1ccc2ncnc(Nc3ccc4c(cnn4Cc4ccccc4)c3)c2c1 |
| 5 to 25 µM |  | CS(=O)(=O)CCNCCCOc1ccc2ncnc(Nc3ccc(OCc4ccccc4)cc3)c2c1 |
| 5 to 25 µM |  | CS(=O)(=O)CCNCCCCOc1ccc2ncnc(Nc3ccc(OCc4cccc(F)c4)c(Cl)c3)c2c1 |
